Measured values as given in patent US8664257B2, “Oxygen-substituted 3-heteroaroylamino-propionic acid derivatives and their use as pharmaceuticals” (Sanofi, priority 2010, dated 2014).

These compounds were tested against T1, Recombinant human cathepsin A (Homo sapiens, UniProt P10619) (assay: Cathepsin A inhibitory activity). Details: pharmacological test "Cathepsin A inhibitory activity"; IC50 given as class A/B/C; read-out: Activity (2): Cathepsin A inhibitory activity, IC50 class.
T1 construct: Recombinant human cathepsin A (residues 29-480, with a C-terminal 10-His tag); 10-His (C); purchased R&D Systems 1049-SE
T1 sequence (P10619 29-312 limits assumed): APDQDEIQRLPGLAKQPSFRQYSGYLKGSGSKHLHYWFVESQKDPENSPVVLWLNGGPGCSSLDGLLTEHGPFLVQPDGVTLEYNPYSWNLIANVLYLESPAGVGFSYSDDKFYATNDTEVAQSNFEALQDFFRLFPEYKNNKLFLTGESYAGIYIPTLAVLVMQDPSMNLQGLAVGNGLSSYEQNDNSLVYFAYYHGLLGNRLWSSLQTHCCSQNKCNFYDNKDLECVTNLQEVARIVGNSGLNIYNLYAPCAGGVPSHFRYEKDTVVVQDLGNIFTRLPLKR
T1 sequence (P10619 327-480 limits assumed): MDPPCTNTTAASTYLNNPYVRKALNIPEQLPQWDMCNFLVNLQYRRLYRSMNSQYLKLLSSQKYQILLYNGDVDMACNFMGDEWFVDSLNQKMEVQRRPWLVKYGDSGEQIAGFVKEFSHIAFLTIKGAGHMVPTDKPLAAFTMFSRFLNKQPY
Format: biochemical
Protocol: a) Cathepsin A Inhibitory Activity
Recombinant human cathepsin A (residues 29-480, with a C-terminal 10-His tag; R&D Systems, #1049-SE) was proteolytically activated with recombinant human cathepsin L (R&D Systems, #952-CY). Briefly, cathepsin A was incubated at 10 μg/ml with cathepsin L at 1 μg/ml in activation buffer (25 mM 2-(morpholin-4-yl)-ethanesulfonic acid (MES), pH 6.0, containing 5 mM dithiothreitol (DTT)) for 15 min at 37° C. Cathepsin L activity was then stopped by the addition of the cysteine protease inhibitor E-64 (N-(trans-epoxysuccinyl)-L-leucine-4-guanidinobutylamide; Sigma-Aldrich, #E3132; dissolved in activation buffer/DMSO) to a final concentration of 10 μM.
The activated cathepsin A was diluted in assay buffer (25 mM MES, pH 5.5, containing 5 mM DTT) and mixed with the test compound (dissolved in assay buffer containing (v/v) 3% DMSO) or, in the control experiments, with the vehicle in a multiple assay plate. After incubation for 15 min at room temperature, as substrate then bradykinin carrying an N-terminal®Bodipy FL (4,4-difluoro-5,7-dimethyl-4-bora-3a,4a-diaza-s-indacene-3-propionyl) label (JPT Peptide Technologies GmbH; dissolved in assay buffer) was added to the mixture. The final concentration of cathepsin A was 833 ng/ml and the final concentration of labeled bradykinin 2 μM. After incubation for 15 min at room temperature the reaction was stopped by the addition of stop buffer (130 mM 2-(4-(2-hydroxy-ethyl)-piperazin-1-yl)-ethanesulfonic acid, pH 7.4, containing (v/v) 0.013% Triton X-100, 0.13% Coating Reagent 3 (Caliper Life Sciences), 6.5% DMSO and 20 μM ebelactone B (Sigma, # E0886)).
Uncleaved substrate and product were then separated by a microfluidic capillary electrophoresis on a LabChip® 3000 Drug Discovery System (12-Sipper-Chip; Caliper Life Sciences) and quantified by determination of the respective peak areas. Substrate turnover was calculated by dividing product peak area by the sum of substrate and product peak areas, and the enzyme activity and the inhibitory effect of the test compound thus quantified. From the percentage of inhibition of cathepsin A activity observed with the test compound at several concentrations, the inhibitory concentration IC50, i.e. the concentration which effects 50% inhibition of enzyme activity was, calculated.

Compared with `O=C(O)C[C@@H](NC(=O)c1cc(O)n(-c2ccccc2Cl)n1)c1ccc(-c2ccc(F)cc2)cc1` [Example 149], `O=C(O)CC(NC(=O)c1cc(O)n(-c2ccc(F)cc2F)n1)c1ccc(Oc2ccccc2)cc1` (stereo not drawn) [Example 199] is higher in IC50: less than 100 nM for the first, 100 to 1000 nM for the second.

`Cc1cc(F)ccc1C(CC(=O)O)NC(=O)c1cc(O)n(-c2ccccc2Cl)n1` (stereo not drawn) [Example 142] and `COc1ccc(Cl)cc1C(CC(=O)O)NC(=O)c1cc(O)n(-c2ccccc2F)n1` (stereo not drawn) [Example 234] fall in the same range of IC50: 100 to 1000 nM for the first, 100 to 1000 nM for the second.

`COc1ccc(Cl)cc1C(CC(=O)O)NC(=O)c1cc(O)n(-c2cccc(Cl)c2)n1` (stereo not drawn) [Example 255] and `O=C(O)C[C@H](NC(=O)c1cc(O)n(-c2cccc(Cl)c2)n1)c1ccc(Cl)cc1Cl` [Example 266] fall in the same range of IC50: 100 to 1000 nM for the first, 100 to 1000 nM for the second.

Same assay, conditions: read-out: Activity (2): Cathepsin A inhibitory activity (IC50 class)

First: O=C(O)CC(NC(=O)c1cc(O)n(-c2ccccc2F)n1)c1ccc(-c2ccccc2Cl)cc1 (stereo not drawn) [Example 542]
Second: O=C(O)C[C@H](NC(=O)c1cc(OCC2CC2)n(-c2ccccc2F)n1)c1ccc(Cl)cc1 [Example 691]
The IC50 of the first is lower: less than 100 nM for the first, 100 to 1000 nM for the second.

`COc1ccc(C(CC(=O)O)NC(=O)c2cc(O)n(-c3ccccc3)n2)c(C(F)(F)F)c1` (stereo not drawn) [Example 546, 3-[(5-Hydroxy-1-phenyl-1H-pyrazole-3-carbonyl)-amino]-3-(4-methoxy-2-trifluoromethyl-phenyl)-propionic acid] and `CCOc1cc(C(=O)N[C@@H](CC(=O)O)c2cccc(OC)c2)nn1-c1ccccc1Cl` [Example 731] fall in the same range of IC50: 100 to 1000 nM for the first, 100 to 1000 nM for the second.

Compared with `COc1cccc([C@H](CC(=O)O)NC(=O)c2cc(OCC3CC3)n(-c3ccccc3F)n2)c1` [Example 689], `Cc1ccccc1[C@H](CC(=O)O)NC(=O)c1cc(OCC2CC2)n(-c2ccccc2)n1` [Example 622] is lower in IC50: 100 to 1000 nM for the first, less than 100 nM for the second.

Same assay, conditions: read-out: Activity (2): Cathepsin A inhibitory activity, IC50 class

Compared with `COc1ccccc1[C@H](CC(=O)O)NC(=O)c1cc(O)n(-c2ccc(Cl)cc2)n1` [Example 274], `O=C(O)CC(NC(=O)c1cc(O)n(-c2ccccc2)n1)c1ccc(Cl)cc1` (stereo not drawn) [Example 58] is lower in IC50: 1000 to 30000 nM for the first, 100 to 1000 nM for the second. The second is the more potent here.

`O=C(O)C[C@H](NC(=O)c1cc(O)n(-c2ccccc2)n1)c1c(F)cccc1F` [Example 103] and `Cc1cccc([C@H](CC(=O)O)NC(=O)c2cc(O)n(-c3ccccc3)n2)c1` [Example 376] fall in the same range of IC50: 100 to 1000 nM for the first, 100 to 1000 nM for the second.

Compared with `Cc1ccc(C)c(-n2nc(C(=O)NC(CC(=O)O)c3cccc(C(F)(F)F)c3)cc2O)c1` (stereo not drawn) [Example 53], `Cc1ccc(C(CC(=O)O)NC(=O)c2cc(O)n(-c3ccc(F)cc3)n2)c(C)c1` (stereo not drawn) [Example 89] is lower in IC50: 1000 to 30000 nM for the first, 100 to 1000 nM for the second. The second is the more potent here.

`COc1ccc(C(CC(=O)O)NC(=O)c2cc(O)n(-c3ccc(F)cc3F)n2)c(OC)c1` (stereo not drawn) [Example 383] and `COc1ccc(C(CC(=O)O)NC(=O)c2cc(O)n(-c3ccc(F)cc3F)n2)c(C)c1` (stereo not drawn) [Example 379] fall in the same range of IC50: 100 to 1000 nM for the first, 100 to 1000 nM for the second.

`CC(C)[C@@](C)(O)COc1cc(C(=O)N[C@@H](CC(=O)O)c2ccc(Cl)cc2Cl)nn1-c1ccccc1F` [Example 816, (S)-3-(2,4-Dichloro-phenyl)-3-{[1-(2-fluoro-phenyl)-5-((R)-2-hydroxy-2,3-dimethyl-butoxy)-1H-pyrazole-3-carbonyl]-amino}-propionic acid] and `Cc1ccc([C@H](CC(=O)O)NC(=O)c2cc(OC[C@](C)(O)C(C)C)n(-c3ccccc3F)n2)cc1` [Example 860, (S)-3-{[1-(2-Fluoro-phenyl)-5-((R)-2-hydroxy-2,3-dimethyl-butoxy)-1H-pyrazole-3-carbonyl]-amino}-3-p-tolyl-propionic acid] cannot be ordered by IC50: less than 100 nM for the first, less than 100 nM for the second.

First: O=C(O)C[C@H](NC(=O)c1cc(O)n(-c2ccc(F)cc2F)n1)c1cccnc1 [Example 389]
Second: N#Cc1cccc([C@H](CC(=O)O)NC(=O)c2cc(O)n(-c3ccc(F)cc3F)n2)c1 [Example 381]
The IC50 of the first is higher: 1000 to 30000 nM for the first, 100 to 1000 nM for the second. The second is the more potent here.

`Cc1ccc([C@H](CC(=O)O)NC(=O)c2cc(OC[C@@H](O)C(C)(C)C)n(-c3ccccc3F)n2)cc1` [Example 801, (S)-3-{[1-(2-Fluoro-phenyl)-5-((S)-2-hydroxy-3,3-dimethyl-butoxy)-1H-pyrazole-3-carbonyl]-amino}-3-p-tolyl-propionic acid] and `CC(C)(C)C(O)COc1cc(C(=O)N[C@H](CC(=O)O)c2ccc(Cl)cc2)nn1-c1ccccc1F` (stereo partly drawn) [Example 815, (R)-3-(4-Chloro-phenyl)-3-{[1-(2-fluoro-phenyl)-5-(2-hydroxy-3,3-dimethyl-butoxy)-1H-pyrazole-3-carbonyl]-amino}-propionic acid] cannot be ordered by IC50: less than 100 nM for the first, less than 100 nM for the second.

`Cc1cccc(C(CC(=O)O)NC(=O)c2cc(O)n(-c3ccc(F)cc3)n2)c1C` (stereo not drawn) [Example 358] and `O=C(O)C[C@H](NC(=O)c1cc(O)n(-c2ccc(F)cc2)n1)c1ccc(Cl)cc1Cl` [Example 370] fall in the same range of IC50: 100 to 1000 nM for the first, 100 to 1000 nM for the second.

`O=C(O)CC(NC(=O)c1cc(O)n(-c2cccc(F)c2)n1)c1ccc(-c2ccccc2)cc1` (stereo not drawn) [Example 327] and `O=C(O)CC(NC(=O)c1cc(O)n(-c2cccc(F)c2)n1)c1ccc(Oc2ccccc2)cc1` (stereo not drawn) [Example 330] fall in the same range of IC50: 100 to 1000 nM for the first, 100 to 1000 nM for the second.

Compared with `O=C(O)C[C@H](NC(=O)c1cc(O)n(-c2ccc(F)cc2F)n1)c1c(F)cccc1F` [Example 388], `N#Cc1cccc([C@H](CC(=O)O)NC(=O)c2cc(O)n(-c3cccc(F)c3)n2)c1` [Example 303] is higher in IC50: 100 to 1000 nM for the first, 1000 to 30000 nM for the second.

`O=C(O)CC(NC(=O)c1cc(O)n(-c2ccccc2Cl)n1)c1ccc(-n2ccnc2)cc1` (stereo not drawn) [Example 116] and `O=C(O)CC(NC(=O)c1cc(O)n(-c2ccccc2)n1)c1ccc(-n2ccnc2)cc1` (stereo not drawn) [Example 105] fall in the same range of IC50: 1000 to 30000 nM for the first, 1000 to 30000 nM for the second.

For `O=C(O)CC(NC(=O)c1cc(O)n(-c2ccccc2)n1)c1cccc(Cl)c1` (stereo not drawn) [Example 10], the IC50 was 100 to 1000 nM.

Same assay, conditions: recombinant human cathepsin A 833 ng/ml, Bodipy FL-labeled bradykinin 2 μM, pH 5.5; read-out: CATH-A IC50

Point of comparison: `COc1ccc(C(CC(=O)O)NC(=O)c2cc(O)n(-c3ccccc3)n2)c(C(F)(F)F)c1` (stereo not drawn) [Example 546, 3-[(5-Hydroxy-1-phenyl-1H-pyrazole-3-carbonyl)-amino]-3-(4-methoxy-2-trifluoromethyl-phenyl)-propionic acid], IC50 533 nM. Against it:
- Cc1ccc([C@H](CC(=O)O)NC(=O)c2cc(OC[C@](C)(O)C(C)C)n(-c3ccccc3F)n2)cc1 [Example 860, (S)-3-{[1-(2-Fluoro-phenyl)-5-((R)-2-hydroxy-2,3-dimethyl-butoxy)-1H-pyrazole-3-carbonyl]-amino}-3-p-tolyl-propionic acid] — 7-fold lower, 76.1 nM
- Cc1c(F)cccc1C(CC(=O)O)NC(=O)c1cc(O)n(-c2ccccc2F)n1 (stereo not drawn) [Example 516, 3-(3-Fluoro-2-methyl-phenyl)-3-{[1-(2-fluoro-phenyl)-5-hydroxy-1H-pyrazole-3-carbonyl]-amino}-propionic acid] — 5.2-fold lower, 102 nM

Same assay, conditions: recombinant human cathepsin A; read-out: Activity (2): Cathepsin A inhibitory activity, IC50 class

`Cc1ccc([C@H](CC(=O)O)NC(=O)c2cc(O)n(-c3cccc(F)c3)n2)cc1` [Example 489] and `O=C(O)C[C@H](NC(=O)c1cc(O)n(-c2cccc(F)c2)n1)c1c(F)cccc1F` [Example 434] fall in the same range of IC50: 100 to 1000 nM for the first, 100 to 1000 nM for the second.

First: COc1cc(C(=O)N[C@@H](CC(=O)NC(C)C)c2ccccc2C)nn1-c1ccccc1F [Example 929]
Second: CCC(COC)NC(=O)C[C@H](NC(=O)c1cc(OC)n(-c2ccccc2F)n1)c1ccccc1C (stereo partly drawn) [Example 921, 1-(2-Fluoro-phenyl)-5-methoxy-1H-pyrazole-3-carboxylic acid [(S)-2-(1-methoxymethyl-propylcarbamoyl)-1-o-tolyl-ethyl]-amide]
The IC50 of the first is lower: 100 to 1000 nM for the first, 1000 to 30000 nM for the second.

First: COc1cc(C(=O)N[C@@H](CC(=O)NC2CC2)c2ccccc2C)nn1-c1ccccc1F [Example 933, 1-(2-Fluoro-phenyl)-5-methoxy-1H-pyrazole-3-carboxylic acid ((S)-2-cyclopropylcarbamoyl-1-o-tolyl-ethyl)-amide]
Second: Cc1ccccc1[C@H](CC(=O)O)NC(=O)c1cc(O)n(-c2ccccc2C(F)(F)F)n1 [Example 537]
The IC50 of the first is lower: less than 100 nM for the first, 100 to 1000 nM for the second. The first is the more potent here.

`COc1cccc([C@H](CC(=O)O)NC(=O)c2cc(O)n(-c3cccc(Cl)c3)n2)c1` [Example 413] and `COc1ccccc1[C@@H](NC(=O)c1cc(O)n(-c2cccc(Cl)c2)n1)[C@@H](O)C(=O)O` [Example 416] fall in the same range of IC50: 1000 to 30000 nM for the first, 1000 to 30000 nM for the second.

First: Cc1c(F)cccc1C(CC(=O)O)NC(=O)c1cc(O)n(-c2ccccc2F)n1 (stereo not drawn) [Example 516, 3-(3-Fluoro-2-methyl-phenyl)-3-{[1-(2-fluoro-phenyl)-5-hydroxy-1H-pyrazole-3-carbonyl]-amino}-propionic acid]
Second: O=C(O)CC(NC(=O)c1cc(O)n(-c2ccccc2F)n1)c1cc(Cl)ccc1Cl (stereo not drawn) [Example 479]
The IC50 of the first is higher: 100 to 1000 nM for the first, less than 100 nM for the second.
